Here are results for five compounds from publication PMC8927147, “Global profiling of regulatory elements in the histone benzoylation pathway” (Nature Communications, 2022).

Where a chain is given by its changes, count along the chain named. Peptide text beside a SMILES is read from it. * marks the point of attachment. Bz = O=C(c1ccccc1)*

Test [1] relates to BY4742 cells. Kind of test: Western blot of histone Kbz and Kac levels in yeast treated with sodium benzoate. The conditions noted are these: BY4742 cells in YPD at log phase, sodium benzoate added for 6 h, histones extracted; pan anti-Kbz and anti-Kac. The format is cell-based, Saccharomyces cerevisiae. An excerpt: Anti-Kbz (PTM Biolabs Inc., PTM-762, 1:1000, Lot^# 1314381619I926), anti-Kac (Cell signal, 9441 S, 1:1000, Lot^# 14), anti-H3N (Active motif, 39763, 1:700, Lot^# 20418023), anti-H4 (Active motif, 61521, 1:3000, Lot^# 31416005), and anti-tubulin (Sigma, T6199, 1:3000, Lot^# 048M4751V) antibodies were used in this study. The HRP secondary antibody and the fluorescent secondary antibodies were used: Peroxidase AffiniPure Goat Anti-Mouse IgG (Jackson ImmunoResearch, 1:5000, 115-035-003), Peroxidase AffiniPure Goat Anti-Rabbit IgG (Jackson ImmunoResearch, 1:5000, 111-035-003), IRDye 800CW goat anti-rabbit IgG (LI-COR P/N 923-32211, 1:5000, Lot^# D00304-15) and IRDye 680RD goat anti-Mouse IgG (LI-COR P/N 926-68070, 1:10000, Lot^# D01014-04). The fluorescent western blots were detected on Odyssey CLx (LI-COR) and quantified by Image Studio (ver. 5.2.5).
Typically, 100 mg yeast cell pellets were harvested and suspended in 1 ml buffer A (1 M sorbitol, 50 mM Tris-HCl, pH 7.5, 5 mM MgCl2, 5 mM 2-mercaptoethanol) and centrifuged for 5 min at 900 g. Then, the pellet was resuspended in 1 ml buffer A with 60 μl zymolyase. […] The concentration of histones was measured by a BCA Protein Assay Kit (TIANGEN, PA115-01, China). The samples were analyzed by western blot or by mass spectrometry.
(In western blotting, separated proteins are transferred to a membrane and probed.)

Test [2] concerns Gcn5-Ada2. Kind of test: DTNB acylation activity assay of Gcn5-Ada2. It is filed as biochemical, Saccharomyces cerevisiae. The note with it: 250 μM H3 1-18 peptide, pH 7.8, 30 °C. How it is done: Kinetic measurements comparing rates of acetylation and benzoylation were performed using the 5,5′-dithiobis-(2-bitrobenzoic acid) (DTNB, D218200-1G, Sigma) assay. Reactions contained 2 μM Gcn5-Ada2, 250 μM H3 peptide amino acids 1-18 ([…]), 100 mM HEPES pH7.8, 50 mM NaCl and 500 μM acetyl-CoA or benzoyl-CoA. Each reaction was incubated for 5 min at 30 °C before adding acyl-CoA to start the reaction. The reaction was quenched at the indicated time points by adding two volumes of freshly prepared quenching buffer (3.2 M guanidine-HCl, 100 mM sodium phosphate pH 6.8). The samples were added to one volume of 4 mM DTNB dissolved in 100 mM sodium phosphate (pH 6.8) and transferred to a 384-well polystyrene clear-bottom plate (CORNING, 3680), and the absorbance at 412 nm was measured in a Bio-TEK plate reader. Absorbances were converted to concentrations using a standard curve generated by HSCOA standards. The acetylation reaction was quenched after 0.5, 1.0, 1.5, 2.0, and 2.5 min, and the benzoylation reaction was quenched after 1, 2, 3, and 4 h. All acylation rates were corrected by subtracting the rate of acyl-CoA consumption by Gcn5-Ada2 in the absence of peptide. The acetylation assays were performed in triplicate, but the benzoylation assay was not repeated due to the limitation of materials.

The target in test [3] is T1, Sth1BD (Saccharomyces cerevisiae, UniProt P32597).
T1 construct: Sth1BD (residues 1248-1359); 6*His-Sumo (N, cleaved yes); made in house; host or cells: Escherichia coli Rosetta
T1 sequence (P32597 1248-1359): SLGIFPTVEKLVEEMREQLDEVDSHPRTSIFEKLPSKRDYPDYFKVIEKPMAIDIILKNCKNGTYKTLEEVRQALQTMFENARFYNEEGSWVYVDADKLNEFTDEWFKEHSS
Kind of test: ITC binding of H3 peptides to Sth1 bromodomain. How it is done: (§1) ITC titrations were performed using a MicroCal ITC200 system (GE Healthcare, USA) at 20 °C. For ITC measurement, peptides and proteins were dialyzed into the same buffer (25 mM Tris-HCl, pH 8.0, 150 mM NaCl). […] For reader-related ITC experiments, peptides at 2.0 mM in the syringe were titrated into Taf14YEATS/Sas5YEATS/Sth1BD at 0.1–0.2 mM in the sample cell. Each titration consisted of 20 successive injections. The titration curves were processed using the Origin 7.0 software program (OriginLab) according to the one-binding-site fitting model. Each titration was repeated twice, and one representative plot was shown in the paper. The dissociation constants (Kd), enthalpy changes (ΔH), and fitting errors were derived from one representative ITC plot.

The target of test [4] is T2, Sas5YEATS (Saccharomyces cerevisiae, UniProt Q99314).
T2 construct: 6*His-Sumo (N, cleaved yes); made in house; host or cells: Escherichia coli Rosetta
T2 sequence (Q99314 2-139): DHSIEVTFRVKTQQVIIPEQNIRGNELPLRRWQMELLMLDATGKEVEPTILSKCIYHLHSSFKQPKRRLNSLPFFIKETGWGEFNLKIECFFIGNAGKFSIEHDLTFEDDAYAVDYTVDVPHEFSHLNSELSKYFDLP
Kind of test: ITC binding of H3 peptides to Sas5YEATS.

Test [5] has as its target T3, Sth1BD A1329C (Saccharomyces cerevisiae, UniProt P32597, A1329C).
T3 construct: Sth1BD (residues 1248-1359); 6*His-Sumo (N, cleaved yes); made in house; host or cells: Escherichia coli Rosetta
T3 sequence (P32597 1248-1359 A1329C): T1 sequence (P32597 1248-1359) with A82C
Kind of test: ITC binding of H3K14bz peptide to Sth1BD A1329C mutant. How it is done: as §1

Regarding `O=C([O-])c1ccccc1.[Na+]` [sodium benzoate], the “effect on histone Kbz and Kac signals (western blot)” value in test [1] was “significantly enhanced the Kbz and Kac signals on yeast histones in a dose-dependent manner”.
Consider `CC(C)(COP(=O)(O)OP(=O)(O)OC[C@H]1O[C@@H](n2cnc3c(N)ncnc32)[C@H](O)[C@@H]1OP(=O)(O)O)[C@@H](O)C(=O)NCCC(=O)NCCSC(=O)c1ccccc1` [benzoyl-CoA], for which the benzoylation rate in test [2] (2 μM Gcn5-Ada2, 500 μM benzoyl-CoA, single experiment) was 1.19 µM/h.
The term Kd denotes a measure of binding affinity in units of concentration. A higher Kd goes with weaker binding. With `CC(C)C[C@H](NC(=O)[C@H](CCC(N)=O)NC(=O)[C@@H](N)CCCCN)C(=O)N[C@@H](C)C(=O)N[C@@H](CO)C(=O)N[C@@H](CCCCN)C(=O)N[C@@H](C)C(=O)N[C@@H](C)C(=O)N[C@@H](CCCNC(=N)N)C(=O)N[C@@H](CCCCNC(=O)c1ccccc1)C(=O)N[C@@H](CO)C(=O)N[C@@H](C)C(=O)N1CCC[C@H]1C(=O)N[C@@H](CO)C(=O)N[C@H](C(=O)NCC(=O)NCC(=O)N[C@H](C(=O)N[C@@H](CCCCN)C(=O)N[C@@H](Cc1ccc(O)cc1)C(=O)O)C(C)C)[C@@H](C)O` [H3K27bz] (H-KQLASKAARK(Bz)SAPSTGGVKY-OH), the dissociation constant (Kd) in test [3] stood at 386 µM; in test [4] it was 92.6 ± 5.63 µM.
Regarding `CC(C)C[C@H](NC(=O)[C@H](CCC(N)=O)NC(=O)[C@H](CCCCN)NC(=O)[C@H](CCCNC(=N)N)NC(=O)[C@@H]1CCCN1C(=O)[C@H](C)NC(=O)[C@H](CCCCNC(=O)c1ccccc1)NC(=O)CNC(=O)CNC(=O)[C@@H](NC(=O)[C@H](CO)NC(=O)[C@H](CCCCN)NC(=O)[C@H](CCCNC(=N)N)NC(=O)[C@H](C)NC(=O)[C@@H](N)[C@@H](C)O)[C@@H](C)O)C(=O)N[C@@H](C)C(=O)N[C@@H](CO)C(=O)N[C@@H](Cc1ccc(O)cc1)C(=O)O` [H3K14bz] (H-TARKSTGGK(Bz)APRKQLASY-OH), the Kd in test [3] worked out at 88.5 ± 12.4 µM; in test [5], 187 ± 29.8 µM.
In test [2] (2 μM Gcn5-Ada2, 500 μM acetyl-CoA, n = 3), `CC(=O)SCCNC(=O)CCNC(=O)[C@H](O)C(C)(C)COP(=O)(O)OP(=O)(O)OC[C@H]1O[C@@H](n2cnc3c(N)ncnc32)[C@H](O)[C@@H]1OP(=O)(O)O` [acetyl-CoA] yielded an acetylation rate of 10.35 µM/min.
